Earlier results, collected in publication PMC9054008 (Science Advances, 2022).

Target: I-Ab (Mus musculus, UniProt P14434+P14483)
Details: cited from earlier work

Sequence of I-Ab (P14434 whole entry, looked up): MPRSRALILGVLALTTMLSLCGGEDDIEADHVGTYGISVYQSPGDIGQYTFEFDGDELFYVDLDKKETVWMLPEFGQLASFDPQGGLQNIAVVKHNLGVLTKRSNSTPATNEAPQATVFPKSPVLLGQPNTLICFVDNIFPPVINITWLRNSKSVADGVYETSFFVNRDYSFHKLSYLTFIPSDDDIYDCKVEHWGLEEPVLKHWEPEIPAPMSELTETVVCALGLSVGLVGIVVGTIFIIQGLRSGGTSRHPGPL
Sequence of I-Ab (P14483 whole entry, looked up): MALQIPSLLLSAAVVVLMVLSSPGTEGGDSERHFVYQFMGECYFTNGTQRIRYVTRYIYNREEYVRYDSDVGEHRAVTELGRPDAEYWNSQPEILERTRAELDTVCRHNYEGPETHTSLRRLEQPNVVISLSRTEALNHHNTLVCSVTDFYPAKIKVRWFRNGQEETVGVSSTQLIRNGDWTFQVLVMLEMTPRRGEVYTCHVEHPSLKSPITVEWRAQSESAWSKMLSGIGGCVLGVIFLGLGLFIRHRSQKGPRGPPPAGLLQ

Sequence | IC50 [µM]
EEALNVALAVVTLLA | 2.73
IEDAKRMIAISAKVA | 6.99
ILKGVINIWGSGLLQ | 7.27
KVFNTRRNTLLFLDL | 4.62
MDLADLFNAQPGLTS | 5.78
MGQLISFFGEIPSII | 9.64
NSLILLECFVRSSPA | 6.03
RHIVGKPCPKPHRLN | 8.7
SGDAMARNISSRTLE | 5.34
TKKSIKEIASSISRL | 3.77
